One block for each molecule: values may come before it.
Assays:
A/J mice [1] = assay: Methacholine-induced bronchospasm (Penh), whole-body plethysmography; format: in vivo; conditions: for blocking of methacholine-induced increase of Penh (cholinergic bronchospasm): 30 and 100 mg/kg orally
Protocol: A/J mice of both sexes were used, weighing between 18 and 20 g, coming from the Laboratory Animal Breeding Center of Oswaldo Cruz Foundation. Using barometric whole-body plethysmography (Buxco Research System, Wilmington, N.C.), bronchospasm responses caused by subsequent inhalations of methacholine (12, 25 and 50 mg/ml for 2.5 minutes, 5-minute intervals) were measured in standard A/J mice, awake, not immobilized, as previously reported (Coelho et al., 2008; Hamelmann et al., 1997). Penh measures in response to methacholine challenge were performed 1 hour and 3 hours after treatment with JME-207 and JME-209 (30 and 100 mg/kg) administered orally (gavage).

A/J mice [2] = assay: Acute airway inflammation induced by cigarette smoke; format: in vivo; conditions: JME-209 30 and 100 mg/kg
Protocol: Male A/J mice (18-20 g), coming from the Laboratory Animal Breeding Center of Oswaldo Cruz Foundation, were used in the experiments. The animals were placed in a chamber and subjected to an atmosphere enriched with 100 ml of smoke from 4 filter cigarettes (trade mark) for 1 minute on four consecutive days. Control animals were exposed to the condition in which cigarette smoke was replaced by equal volume of ambient air (Castro et al., 2009).
[…] The compounds were dissolved in 0.9% NaCl just prior to administration.
Obtaining of bronchoalveolar lavage, as well as the total and differential leukocyte counts carried out in this effluent, were made as previously described (Olsen et al., 2011). Thus, after 24 hrs of the last exposure to cigarette smoke, the mice were sacrificed by terminal anesthesia with thiopental (500 mg/kg). Then, they had the trachea dissected and cannulated BAL was performed by 3 consecutive lavages of 800 μl of PBS containing EDTA (10 mM). The lavages were then subjected to centrifugation (1500 rpm-10 minutes) and the cell “pellet” resuspended in the volume of 0.5 ml of PBS/EDTA solution 10 mM. The total leukocyte count from the lavage was performed in a Neubauer chamber by light microscopy (100× magnification), diluting an aliquot of the cell suspension from the lavage in TPrk liquid (1:40). The differential counting was performed on cytocentrifuged, which were stained with May-Grunwald-Giemsa and assessed using oil immersion objective (1000× magnification).

A/J mice [3] = assay: LPS-induced lung inflammation and airway hyperreactivity; format: in vivo
Protocol: Male A/J mice (18-20 g), coming from the Laboratory Animal Breeding Center of Oswaldo Cruz Foundation, were used in the experiments. The mice were anesthetized with halothane aerosol ([…], SP, Brazil) to receive intranasal administration of LPS (25 μg/25 μl 0.9% NaCl, instillation) or 0.9% NaCl (25 μl) (negative control). […] Obtaining of bronchoalveolar lavage, as well as the total and differential leukocyte counts carried out in this effluent, were made as previously described (Kummerle et al., 2012). Thus, after 18 hrs of LPS instillation, the mice were sacrificed by terminal anesthesia with thiopental (500 mg/kg). Then, they had the trachea dissected and cannulated. Bronchoalveolar lavage (BAL) was performed by 3 consecutive lavages of 800 μl of PBS containing EDTA (10 mM). The lavages were then subjected to centrifugation (1500 rpm-10 minutes) and the cell “pellet” resuspended in the volume of 0.5 ml of PBS/EDTA solution 10 mM. The total leukocyte count from the lavage was performed in a Neubauer chamber by light microscopy (100× magnification), diluting an aliquot of the cell suspension from the lavage in TPrk liquid (1:40). The differential counting was performed on cytocentrifuged, which were stained with May-Grunwald-Giemsa and assessed using oil immersion objective (1000× magnification) (Kummerle et al., 2012). The airway hyperreactivity was also assessed 18 hours after LPS, by exposing the animals to increasing concentrations of aerosolized methacholine (3-27 mg/ml) in FinePoint R/C Buxco® system (Buxco Electronics, Sharon, Conn., USA). The mice were anesthetized with Nembutal (60 mg/kg, i.p.) for the tracheostomy procedure and connection of the animal to mechanical ventilation and pneumotachograph of the FinePoint platform. The neuromuscular activity was blocked with pancuronium bromide (1 mg/kg, i.v.) to enable the pulmonary resistance records (cm H20/mL/s) and elastance (cm H20/mL) in each respiratory cycle, as previously reported (Olsen et al., 2011).

[4] = tested on: mast cells of the RBL-2H3 line; assay: Antigen-induced degranulation of sensitized mast cells (beta-hexosaminidase release); format: cell-based; conditions: Rattus norvegicus; for IC50: RBL-2H3, 1 h, RBL-2H3, DNP-BSA 10 ng/ml, 60 minutes treatment, read-out: IC50 blocking of anaphylactic mast cell degranulation; for Emax: RBL-2H3, DNP-BSA, read-out: EMAX blocking of anaphylactic mast cell degranulation
Protocol: For this study, mast cells of the RBL-2H3 line were used, as previously reported (Beaven et al., 1987). […] The cells were then dissociated from the plate using trypsin, centrifuged at 1000 rpm for 5 minutes and distributed in 48-well plates at a density of 125,000 cells per well. The cells were sensitized with monoclonal DNP-specific […] (1 μg/mL) diluted in the same medium used for the cultivation and maintained in the oven for 20 hours. After this period, the cells were washed with Tyrode-gelatin and subjected to treatment with increasing concentrations of […]-209 or mexiletine for 60 minutes. Then, incubation was performed with DNP-BSA (10 ng/ml) for a further period of 60 minutes. After this period, 10 μL of supernatant were collected from each well and added to a 96-well plate. The cells were lysed with 200 μL of 0.1% Triton X-100 and 10 μL of the lysate of each plate were added to the 96-well plate. Then, 40 μL of substrate for the β-hexosaminidase enzyme were added to the samples. After 40 minutes of reaction, reaction stopping solution (0.2 M glycine) was added, generating a colorimetric response, which was measured by spectrophotometer (λ=405 nm).

[5] = tested on: rat tracheas pre-contracted with carbachol; assay: Relaxation of rat trachea pre-contracted with carbachol
Protocol: To assess the potential relaxing effect of the respiratory smooth muscle, rat tracheas were obtained and maintained in an isolated organ bath, as previously described (Coelho et al., 2008). The tracheal segments were then pre-contracted with carbachol at the concentration of 2.5 μM and subjected to increasing concentrations of the tested compounds. All results were expressed as percentage of the contraction produced by carbachol (Coelho et al., 2008).

A/J mice [6] = assay: Ovalbumin asthma model: airway hyperreactivity, leukocyte infiltration, cytokines (nebulization); format: in vivo; conditions: for IL-5 generation in lung tissue / IL-13 generation in lung tissue / eotaxin-2 generation in lung tissue / increased production of eotaxin-1: nebulization 2%; for airway hyperreactivity (lung resistance and elastance after methacholine): nebulization 2% for 30 minutes, OVA sensitized and challenged
Protocol: Male A/J mice (18-20 g), coming from the Laboratory Animal Breeding Center of Oswaldo Cruz Foundation, were used in the experiments. The animals were previously sensitized with a mixture of ovalbumin (OVA) (50 μg) (Grade V; Sigma, St. Louis, Mo., USA) and aluminum hydroxide (5 mg) administered subcutaneously on day 0 with boost on day 14 (equal suspension administered intraperitoneally). Nasal instillations of OVA (25 μg/25 μl in sterile 0.9% NaCl) were administered on days 14, 21, 28 and 35, with the hyperresponsiveness analysis performed 24 hours after the last challenge. […] That is, the treatments took place after the installation of asthma framework, reflecting a therapeutic action of the respective compounds analyzed.
The effect of the treatments on bronchial hyperreactivity was investigated by measuring the resistance changes and pulmonary elastance, using invasive barometric plethysmography whole-body system (Buxco, USA), as previously described (Olsen et al., 2012).

rat tracheal rings = assay: Inhibition of carbachol-induced contraction of rat tracheal rings (pretreatment); conditions: Rattus norvegicus
Description: In this study, Wistar rats of both sexes were used, weighing between 200 and 250 g, coming from the Laboratory Animal Breeding Center of Fundacdo Oswaldo Cruz. As previously described (Coelho et al., 2008), the animals were sacrificed by exposure to air atmosphere enriched with CO2, Then, the anterior cervical region was opened so that the trachea could be located and removed. It was then transferred to a Petri dish containing Krebs solution with the following composition (mM): NaCl (118), KCl (4.8), CaCl2 (2.5), MgSO4 (1.2), KH2PO4 (1.2), NaHCO3 (24), and glucose (11). The total segment was divided into fragments of about 3 to 4 rings, which were kept in another Petri dish containing Krebs solution. Each fragment was mounted vertically on a 10 ml cuvette with Krebs solution maintained at 37° C. and aerated with carbogen mixture (95% O2 and 5% CO2). The lower rod is fixed to the cuvette base and the top portion was attached to the isometric transducer for measuring the voltage variation of the fragment. The transducer was connected to a device which transforms the voltage variation in digital record. The fragments were subjected to a basal voltage of 1 g and were calibrated, so that the subsequent contractions could be expressed as a percentage of this 1 g voltage. The solutions were introduced inside the cuvettes with the aid of an automatic pipette. The end of the tip was always placed at the same height and position, without touching the muscle. The tracheal rings were initially contracted with 2.5 μM of carbachol. When the contractions reached the plateau, each segment was washed until the total relaxation of the smooth muscle. […] All results were expressed as percentage of the contraction produced by 2.5 μM of carbachol (Coelho et al., 2008).

tracheal rings = assay: Anaphylactic (ovalbumin-induced) contraction of tracheal rings from sensitized rats; parameters: species or system Wistar rats; conditions: compound 30 μM
Protocol: In this study, Wistar rats of both sexes were used, weighing between 200 and 250 g, coming from the Laboratory Animal Breeding Center of Fundacdo Oswaldo Cruz. As described previously (da Costa et al., 2007), the animals were sensitized by injection into the dorsal subcutaneous tissue with mixture containing 50 μg of ovalbumin and 5 mg of aluminum hydroxide on days 0 and 7. On the 14th day after the first sensitization, the animals were sacrificed for the removal of the trachea. After a stabilization period of 30 minutes, the tracheal rings were contracted initially with carbachol (2.5 μM) for testing the feasibility and reproducibility of the responses of the preparation.
The tracheal rings were exposed to increasing concentrations of JME-173 (3-30 μM), or carrier (0.9% NaCl) for 30 minutes before the triggering of the contractile response triggered by ovalbumin (100 μg/ml). Salmeterol (30 μM) was used as reference treatment. The responses were expressed as mean±Standard Error of the Mean of at least 5 tracheal segments. All results were expressed as percentage of the contraction produced by 2.5 μM of carbachol.

[7] = 30 and 100 mg/kg orally 1 hour before LPS

Structure (SMILES): CC(N)COc1ccc(-c2ccccc2)cc1.Cl (centres unmarked) [JME-209]
action time (A/J mice [1]; 100 mg/kg orally): at least 3 hours
blocking of methacholine-induced increase of Penh (cholinergic bronchospasm) (A/J mice [1]; 1 hour after treatment): slight blocking
blocking of methacholine-induced increase of Penh (cholinergic bronchospasm) (A/J mice [1]; 3 hours after treatment): active only at the highest dose
eosinophils in bronchoalveolar effluent (A/J mice [2]; dexamethasone 1 mg/kg, orally): blocked
mononuclear cells in bronchoalveolar effluent (A/J mice [2]; dexamethasone 1 mg/kg, orally): blocked
neutrophils in bronchoalveolar effluent (A/J mice [2]; dexamethasone 1 mg/kg, orally): blocked
accumulation of total leukocytes in bronchoalveolar space (A/J mice [2]; dexamethasone 3 mg/kg, orally 1 hr before smoke): significantly inhibited
increase in the number of mononuclear cells in bronchoalveolar lavage (A/J mice [3]; [7]): without significantly altering
levels of eosinophils in bronchoalveolar lavage (A/J mice [3]; [7]): reducing
levels of neutrophils in bronchoalveolar lavage (A/J mice [3]; [7]): reducing
leukocyte infiltration in bronchoalveolar space (A/J mice [3]; 30 and 100 mg/kg orally 1 hour before LPS, 18 hours after challenge): inhibited
airway hyperreactivity (lung resistance and elastance) (A/J mice [3]; oral treatment 1 hour before LPS, 18 hours after LPS): inhibited
IC50 [4]: 28.6 µM
Emax [4]: 100%

EC50 ([5]; Rattus norvegicus, trachea pre-contracted with carbachol 2.5 μM, mean±SEM): 1 mM
IC50 (rat tracheal rings; carbachol 10 μM, pretreated 10 minutes): 40.9 µM
Structure (SMILES): Cc1cc(I)ccc1OCC(C)N.Cl (centres unmarked) [JME-207]
blocking of methacholine-induced increase of Penh (cholinergic bronchospasm) (A/J mice [1]; 3 hours after treatment): significantly inhibited
times more potent as relaxation inducers than mexiletine ([5]; pre-contracted trachea): 146 times
maximum relaxation effect ([5]; trachea pre-contracted with carbachol 2.5 μM, mean±SEM): 111%
IL-5 generation in lung tissue (A/J mice [6]): equally sensitive
IL-13 generation in lung tissue (A/J mice [6]): equally sensitive
eotaxin-2 generation in lung tissue (A/J mice [6]): only the latter inhibited
increased production of eotaxin-1 (A/J mice [6]): failed to modify
airway hyperreactivity (lung resistance and elastance after methacholine) (A/J mice [6]): abolished
IC50 [4]: 2.3 µM
Emax [4]: 94%
Emax (rat tracheal rings; carbachol 10 μM, pretreated 10 minutes, mean ± SEM, read-out: EMAX maximum effect of inhibition of carbachol-induced contraction): 92.9 ± 4.3%
inhibition at 100 µM (rat tracheal rings; compound 100 μM, pre-treatment 10 minutes, read-out: inhibition of the muscarinic contraction): ~93%

Structure (SMILES): CC(N)COc1cccc(I)c1.Cl (centres unmarked) [JME-141]
airway hyperreactivity (lung resistance and elastance after methacholine) (A/J mice [6]): abolished

Structure (SMILES): CC(N)COc1ccc(F)c(Cl)c1.Cl (centres unmarked) [JME-188]
IL-5 generation in lung tissue (A/J mice [6]): equally sensitive
IL-13 generation in lung tissue (A/J mice [6]): equally sensitive
eotaxin-2 generation in lung tissue (A/J mice [6]): inhibited
increased production of eotaxin-1 (A/J mice [6]): failed to modify
airway hyperreactivity (lung resistance and elastance after methacholine) (A/J mice [6]): abolished

Structure (SMILES): OCc1cc(C(O)CNCCCCCCOCCCCc2ccccc2)ccc1O (centres unmarked) [salmeterol, reference compound]
blocking of anaphylactic contraction (tracheal rings): 52%
